Assay results: ChEMBL document CHEMBL3885861, “Open TG-GATES”

Species: Rattus norvegicus
Test: Open TG-GATES - Regimen: Single
Format: toxicity, organism-based, Sprague-Dawley
Design: regimen Single, gender Male, age 6 weeks
Conditions: in vivo, po, 0 mg/kg, route gavage, dose level Control; for APTT / Bas / Eos / Fbg / Hb / Ht / Lym / MCH / MCHC / MCV / Mono / Neu / PT / Plat / RBC / Ret / WBC: tissue Blood; for KIDNEY_L / KIDNEY_R / KIDNEY_TOTAL: tissue Kidney; for LIVER: tissue Liver; for A/G / ALP / ALT / AST / BUN / CRE / Ca / Cl / DBIL / GLC / IP / K / LDH / Na / PL / RALB / TBIL / TC / TG / TP / gamma-GTP: tissue Plasma

Question: `CCOC(=O)CCC(=O)O[C@H]1[C@H](O[C@@H]2[C@@H](C)[C@H](O[C@H]3C[C@@](C)(OC)[C@@H](O)[C@H](C)O3)[C@@H](C)C(=O)O[C@H](CC)[C@@](C)(O)[C@H](O)[C@@H](C)C(=O)[C@H](C)C[C@@]2(C)O)O[C@H](C)C[C@@H]1N(C)C` [ERYTHROMYCIN ETHYLSUCCINATE] was tested. Which TERMINAL_BW (3 h) did it give?
Answer: 215 g

Question: And the APTT (3 h)?
Answer: 23.2 s

Question: What about the Bas (3 h) of the same compound?
Answer: 0%

Question: And the Eos (3 h)?
Answer: 1%

Question: And the Fbg (3 h)?
Answer: 292.2 mg/dL

Question: And the Hb (3 h)?
Answer: 13.2 g/dL

Question: And the Ht (3 h)?
Answer: 40.2%

Question: And the Lym (3 h)?
Answer: 81.2%

Question: And the MCH (3 h)?
Answer: 20.8 pg

Question: And the MCHC (3 h)?
Answer: 32.9%

Question: What about the MCV (3 h) of the same compound?
Answer: 63.2 fL

Question: And the Mono (3 h)?
Answer: 2%

Question: And the Neu (3 h)?
Answer: 15%

Question: What about the PT (3 h) of the same compound?
Answer: 16.3 s

Question: What about the Plat (3 h) of the same compound?
Answer: 112.7 x10_4/uL

Question: And the RBC (3 h)?
Answer: 635.6 x10_4/ul

Question: And the Ret (3 h)?
Answer: 7.9%

Question: And the WBC (3 h)?
Answer: 75.2 x10_2/uL

Question: What about the KIDNEY_L (3 h) of the same compound?
Answer: 0.9 g

Question: And the KIDNEY_R (3 h)?
Answer: 0.9 g

Question: What about the KIDNEY_TOTAL (3 h) of the same compound?
Answer: 1.8 g

Question: What about the LIVER (3 h) of the same compound?
Answer: 9.7 g

Question: And the A/G (3 h)?
Answer: 1.2

Question: What about the ALP (3 h) of the same compound?
Answer: 1728.4 IU/L

Question: And the ALT (3 h)?
Answer: 40.6 IU/L

Question: What about the AST (3 h) of the same compound?
Answer: 76.6 IU/L

Question: What about the BUN (3 h) of the same compound?
Answer: 14.6 mg/dL

Question: What about the CRE (3 h) of the same compound?
Answer: 0.2 mg/dL

Question: And the Ca (3 h)?
Answer: 10.4 mg/dL

Question: And the Cl (3 h)?
Answer: 103.2 meq/L

Question: And the DBIL (3 h)?
Answer: 0 mg/dL

Question: What about the GLC (3 h) of the same compound?
Answer: 188.2 mg/dL

Question: What about the IP (3 h) of the same compound?
Answer: 8.3 mg/dL

Question: What about the K (3 h) of the same compound?
Answer: 3.9 meq/L

Question: And the LDH (3 h)?
Answer: 159.2 IU/L

Question: And the Na (3 h)?
Answer: 139.4 meq/L

Question: What about the PL (3 h) of the same compound?
Answer: 140 mg/dL

Question: What about the RALB (3 h) of the same compound?
Answer: 2.9 g/dL

Question: And the TBIL (3 h)?
Answer: 0.012 mg/dL

Question: And the TC (3 h)?
Answer: 84.8 mg/dL

Question: What about the TG (3 h) of the same compound?
Answer: 55.4 mg/dL

Question: And the TP (3 h)?
Answer: 5.4 g/dL

Question: And the gamma-GTP (3 h)?
Answer: 1 IU/L

Question: What about the TERMINAL_BW (6 h) of the same compound?
Answer: 212.6 g

Question: And the APTT (6 h)?
Answer: 22.9 s

Question: What about the Bas (6 h) of the same compound?
Answer: 0%

Question: And the Eos (6 h)?
Answer: 0.6%

Question: And the Fbg (6 h)?
Answer: 321.8 mg/dL

Question: And the Hb (6 h)?
Answer: 13.8 g/dL

Question: What about the Ht (6 h) of the same compound?
Answer: 42.2%

Question: And the Lym (6 h)?
Answer: 75.8%

Question: What about the MCH (6 h) of the same compound?
Answer: 21.3 pg

Question: What about the MCHC (6 h) of the same compound?
Answer: 32.8%

Question: What about the MCV (6 h) of the same compound?
Answer: 65 fL

Question: What about the Mono (6 h) of the same compound?
Answer: 2.4%

Question: And the Neu (6 h)?
Answer: 20.2%

Question: What about the PT (6 h) of the same compound?
Answer: 15.8 s

Question: What about the Plat (6 h) of the same compound?
Answer: 121 x10_4/uL

Question: What about the RBC (6 h) of the same compound?
Answer: 651 x10_4/ul

Question: And the Ret (6 h)?
Answer: 7.6%

Question: What about the WBC (6 h) of the same compound?
Answer: 111.5 x10_2/uL

Question: What about the KIDNEY_L (6 h) of the same compound?
Answer: 0.9 g

Question: And the KIDNEY_R (6 h)?
Answer: 0.9 g

Question: What about the KIDNEY_TOTAL (6 h) of the same compound?
Answer: 1.9 g

Question: What about the LIVER (6 h) of the same compound?
Answer: 9.3 g

Question: What about the A/G (6 h) of the same compound?
Answer: 1.2

Question: And the ALP (6 h)?
Answer: 1491 IU/L

Question: What about the ALT (6 h) of the same compound?
Answer: 37.4 IU/L

Question: And the AST (6 h)?
Answer: 70.6 IU/L

Question: What about the BUN (6 h) of the same compound?
Answer: 9.6 mg/dL

Question: And the CRE (6 h)?
Answer: 0.2 mg/dL

Question: What about the Ca (6 h) of the same compound?
Answer: 10.3 mg/dL

Question: What about the Cl (6 h) of the same compound?
Answer: 103.4 meq/L

Question: And the DBIL (6 h)?
Answer: 0.002 mg/dL

Question: What about the GLC (6 h) of the same compound?
Answer: 190.6 mg/dL

Question: What about the IP (6 h) of the same compound?
Answer: 8.9 mg/dL

Question: What about the K (6 h) of the same compound?
Answer: 4.1 meq/L

Question: What about the LDH (6 h) of the same compound?
Answer: 138 IU/L

Question: And the Na (6 h)?
Answer: 139.6 meq/L

Question: And the PL (6 h)?
Answer: 139.8 mg/dL

Question: What about the RALB (6 h) of the same compound?
Answer: 3 g/dL

Question: And the TBIL (6 h)?
Answer: 0.02 mg/dL

Question: And the TC (6 h)?
Answer: 78.8 mg/dL

Question: What about the TG (6 h) of the same compound?
Answer: 67.6 mg/dL

Question: What about the TP (6 h) of the same compound?
Answer: 5.5 g/dL

Question: And the gamma-GTP (6 h)?
Answer: 1.2 IU/L
